Laboratory results from patent publication US8124744B2, “Macrolide derivatives” (Taisho Pharmaceutical Co., Ltd., priority 2006, dated 2012).

Assays:
[1] = test system: Staphylococcus aureus ATCC29213; assay: Minimal inhibitory concentration (MIC); assay type: cell-based
Procedure: (§1) To 7- to 9-week male C57BL/6J mice (purchased from CLEA Japan, Inc. or Japan SLC, Inc.), Zymosan A (SIGMA) derived from budding yeasts which is adjusted to be 1 mg/ml in a phosphate buffer solution (PBS, 10010-49, Invitrogen) was administered intraperitoneally at 1 ml per mouse to induce peritonitis. Three days later, filter-sterilized cell recovery buffer (2 mM EDTA, 0.5% bovine serum albumin, PBS, pH 7.4) was administered intraperitoneally at 5 ml per mouse to recover peritoneal exudata cells. The cells went through a cell strainer (70 μm nylon, FALCON) and were then washed twice with a Hanks solution (Invitrogen). The cells were suspended in 10% fetal calf serum-containing Dulbecco's modified Eagle's culture medium (Invitrogen). The suspension was seeded on a plate with 48 wells, after 6 hours, the culture medium was completely exchanged. After culturing for another 18 hours, test compounds were added at 0.02 to 20 μM of the final concentration. After 1 hour from the addition of the compounds, a tumor necrosis factor (TNF) α (R & D Systems) was added at 25 ng/ml of the final concentration, and 24 hours later, the culture supernatant was collected. The amount of pro MMP-9 protein in the supernatant was quantified by an enzyme-linked immunosorbent assay (ELISA) (R & D Systems), IC50 values of the test compounds on the increased amount by TNF α stimuli, were calculated by ORIGIN analysis software (trade name: OriginLab). In addition, minimal inhibitory concentration (MIC) of each test compounds (measured bacterium: Staphylococcus aureus ATCC29213) was measured. As a comparative agent […] A (clarithromycin) was used.

pro MMP-9 protein = assay: Inhibitory activity against proMMP-9 protein production (TNF α-stimulated mouse peritoneal exudate cells, ELISA); assay type: cell-based, C57BL/6J mice; conditions: relative activity when the value of Comparative Agent 1 (IC50 = 10.04 ± 4.11 μM) is 10, on the increase of pro MMP-9 by TNF α 25 ng/ml, 24 hours, read-out: IC50 (μM)*
Procedure: as §1

MIC [1] [µg/mL] | IC50 (pro MMP-9 protein) [µM] | SMILES
> 128 | 3.55 | CC[C@H]1OC(=O)[C@H](C)[C@@H](O[C@H]2C[C@@](C)(OC)[C@@H](O)[C@H](C)O2)[C@H](C)[C@@H](O[C@@H]2O[C@H](C)C[C@H](N(C)C)[C@H]2OCCCNS(C)(=O)=O)[C@@](C)(OC)C[C@@H](C)C(=O)[C@H](C)[C@@H](O)[C@]1(C)O [Example 117, 2′-O-(3-methanesulfonylamidepropyl)-6-O-methylerythromycin A]
> 128 | 4.42 | CC[C@H]1OC(=O)[C@H](C)[C@@H](O[C@H]2C[C@@](C)(OC)[C@@H](OC(C)=O)[C@H](C)O2)[C@H](C)[C@@H](O[C@@H]2O[C@H](C)C[C@H](N(C)C)[C@H]2OCCCN2CCOCC2)[C@@](C)(OC)C[C@@H](C)C(=O)[C@H](C)[C@@H](O)[C@]1(C)O [Example 119, 4″-O-acetyl-2′-O-(3-(4-morpholino)propyl)-6-O-methylerythromycin A]
> 128 | 3.06 | CC[C@H]1OC(=O)[C@H](C)[C@@H](O[C@H]2C[C@@](C)(OC)[C@@H](OC(C)=O)[C@H](C)O2)[C@H](C)[C@@H](O[C@@H]2O[C@H](C)C[C@H](N(C)C)[C@H]2OCCCN2CCC(O)CC2)[C@@](C)(OC)C[C@@H](C)C(=O)[C@H](C)[C@@H](O)[C@]1(C)O [Example 122, 4″-O-acetyl-2′-O-(3-(4-hydropiperidin-1-yl)propyl)-6-O-methylerythromycin A]
> 128 | < 1.04 | CC[C@H]1OC(=O)[C@H](C)[C@@H](O[C@H]2C[C@@](C)(OC)[C@@H](O)[C@H](C)O2)[C@H](C)[C@@H](O[C@@H]2O[C@H](C)C[C@H](N(C)CCCOCc3ccccc3)[C@H]2OC)[C@@](C)(OC)C[C@@H](C)C(=O)[C@H](C)[C@@H](O)[C@]1(C)O [Example 129, 3′-N-demethyl-3′-N-(3-benzyloxypropyl)-6,2′-di-O-methylerythromycin A]
> 128 | 1.33 | CC[C@H]1OC(=O)[C@H](C)[C@@H](O[C@H]2C[C@@](C)(OC)[C@@H](O)[C@H](C)O2)[C@H](C)[C@@H](O[C@@H]2O[C@H](C)C[C@H](N(C)CCCN(C)C)[C@H]2OC)[C@@](C)(OC)C[C@@H](C)C(=O)[C@H](C)[C@@H](O)[C@]1(C)O [Example 130, 3′-N-demethyl-3′-N-(3-dimethylaminopropyl)-6,2′-di-O-methylerythromycin A]
> 128 | 3.33 | CC[C@H]1OC(=O)[C@H](C)[C@@H](O[C@H]2C[C@@](C)(OC)[C@@H](O)[C@H](C)O2)[C@H](C)[C@@H](O[C@@H]2O[C@H](C)C[C@H](N(C)CCCN3CCOCC3)[C@H]2OC)[C@@](C)(OC)C[C@@H](C)C(=O)[C@H](C)[C@@H](O)[C@]1(C)O [Example 131, 3′-N-demethyl-3′-N-(3-(4-morpholino)propyl)-6,2′-di-O-methylerythromycin A]
> 128 | 2.52 | CC[C@H]1OC(=O)[C@H](C)[C@@H](O[C@H]2C[C@@](C)(OC)[C@@H](O)[C@H](C)O2)[C@H](C)[C@@H](O[C@@H]2O[C@H](C)C[C@H](N(C)CCCO)[C@H]2OC)[C@@](C)(OC)C[C@@H](C)C(=O)[C@H](C)[C@@H](O)[C@]1(C)O [Example 132, 3′-N-demethyl-3′-N-(3-hydroxypropyl)-6,2′-di-O-methylerythromycin A]
> 128 | 3.95 | CC[C@H]1OC(=O)[C@H](C)[C@@H](O[C@H]2C[C@@](C)(OC)[C@@H](O)[C@H](C)O2)[C@H](C)[C@@H](O[C@@H]2O[C@H](C)C[C@H](N)[C@H]2OC)[C@@](C)(OC)C[C@@H](C)C(=O)[C@H](C)[C@@H](O)[C@]1(C)O [Example 138, 3′-N-dedimethyl-6,2′-di-O-methylerythromycin A]
> 128 | 5.51 | CC[C@H]1OC(=O)[C@H](C)[C@@H](O[C@H]2C[C@@](C)(OC)[C@@H](O)[C@H](C)O2)[C@H](C)[C@@H](O[C@@H]2O[C@H](C)C[C@H](N3CCOCC3)[C@H]2OC)[C@@](C)(OC)C[C@@H](C)C(=O)[C@H](C)[C@@H](O)[C@]1(C)O [Example 139, 3′-N-dedimethylamino-3-(4-morpholino)-6,2′-di-O-methylerythromycin A]
> 128 | 2.18 | CC[C@H]1OC(=O)[C@H](C)[C@@H](O[C@H]2C[C@@](C)(OC)[C@@H](O)[C@H](C)O2)[C@H](C)[C@@H](O[C@@H]2O[C@H](C)C[C@H](N(C)C)[C@H]2OC)[C@@](C)(OC)C[C@@H](C)[C@H](O)[C@H](C)[C@@H](O)[C@]1(C)O [Example 141, 9-deoxo-9-(S)-hydroxy-6,2′-di-O-methylerythromycin A]
> 128 | 7.68 | CC[C@H]1OC(=O)[C@H](C)[C@@H](O[C@H]2C[C@@](C)(OC)[C@@H](OC(C)=O)[C@H](C)O2)[C@H](C)[C@@H](O[C@@H]2O[C@H](C)C[C@H](N(C)C)[C@H]2OC)[C@@](C)(OC)C[C@@H](C)C(=O)[C@H](C)[C@H]2NC(=O)O[C@@]21C [Example 148, 4″-O-acetyl-11-amino-11-deoxy-6,2′-di-O-methylerythromycin A 11,12-cyclic carbamate]
> 128 | 9.7 | CC[C@H]1OC(=O)[C@H](C)C(=O)[C@H](C)[C@@H](O[C@@H]2O[C@H](C)C[C@H](N(C)C)[C@H]2OC)[C@@](C)(OC)C[C@@H](C)C(=O)[C@H](C)[C@@H](O)[C@]1(C)O [Example 155, 3-deoxy-3-oxo-5-O-(2′-O-methyldesosaminyl)-6-O-methylerythronolide A]
> 128 | < 1.5 | CC[C@H]1OC(=O)[C@H](C)[C@@H](O[C@H]2C[C@@](C)(OC)[C@@H](OC(C)=O)[C@H](C)O2)[C@H](C)[C@@H](O[C@@H]2O[C@H](C)C[C@@H](N(C)CCCc3ccncc3)[C@@H]2N(C)C)[C@@](C)(OC)C[C@@H](C)C(=O)[C@H](C)[C@@H](O)[C@]1(C)O [Example 162, 4″-O-acetyl-3′-N-demethyl-2′-deoxy-2′-dimethylamino-3′-N-(3-(4-pyridyl)propyl)-6-O-methylerythromycin A]
> 128 | 2.77 | CC[C@H]1OC(=O)[C@H](C)[C@@H](O[C@H]2C[C@@](C)(OC)[C@@H](OC(C)=O)[C@H](C)O2)[C@H](C)[C@@H](O[C@@H]2O[C@H](C)C[C@@H](N3CCC(O)CC3)[C@@H]2N(C)C)[C@@](C)(OC)C[C@@H](C)C(=O)[C@H](C)[C@@H](O)[C@]1(C)O [Example 164, 4″-O-acetyl-3′-dedimethylamino-2′-deoxy-2′-dimethylamino-3′-(4-hydroxypiperidin-1-yl)-6-O-methylerythromycin A]
> 128 | 2.89 | CC[C@H]1OC(=O)[C@H](C)[C@@H](O[C@H]2C[C@@](C)(OC)[C@@H](O)[C@H](C)O2)[C@H](C)[C@@H](O[C@@H]2O[C@H](C)C[C@@H](N3CCN(CCN(C)C)CC3)[C@@H]2N(C)C)[C@@](C)(OC)C[C@@H](C)C(=O)[C@H](C)[C@@H](O)[C@]1(C)O [Example 169, 3′-dedimethylamino-2′-deoxy-2′-dimethylamino-3′-(4-(2-dimethylaminoethyl)piperazin-1-yl)-6-O-methylerythromycin A]
> 128 | 1.01 | CC[C@H]1OC(=O)[C@H](C)[C@@H](O[C@H]2C[C@@](C)(OC)[C@@H](OC(C)=O)[C@H](C)O2)[C@H](C)[C@@H](O[C@@H]2O[C@H](C)C[C@@H](N(C)Cc3ccccc3)[C@@H]2N(C)C)[C@@](C)(OC)C[C@@H](C)C(=O)[C@H](C)[C@@H](O)[C@]1(C)O [Example 170, 4″-O-acetyl-3′-N-demethyl-2′-deoxy-2′-dimethylamino-3′-N-benzyl-6-O-methylerythromycin A]
> 128 | 1.45 | CC[C@H]1OC(=O)[C@H](C)[C@@H](O[C@H]2C[C@@](C)(OC)[C@@H](O)[C@H](C)O2)[C@H](C)[C@@H](O[C@@H]2O[C@H](C)C[C@@H](N(C)Cc3ccccc3)[C@@H]2N(C)C)[C@@](C)(OC)C[C@@H](C)C(=O)[C@H](C)[C@@H](O)[C@]1(C)O [Example 171, 3′-N-demethyl-2′-deoxy-2′-dimethylamino-3′-N-benzyl-6-O-methylerythromycin A]
> 128 | 4.95 | CC[C@H]1OC(=O)[C@H](C)[C@@H](O[C@H]2C[C@@](C)(OC)[C@@H](O)[C@H](C)O2)[C@H](C)[C@@H](O[C@@H]2O[C@H](C)C[C@@H](N(C)CCO)[C@@H]2N(C)C)[C@@](C)(OC)C[C@@H](C)C(=O)[C@H](C)[C@@H](O)[C@]1(C)O [Example 173, 3′-N-demethyl-2′-deoxy-2′-dimethylamino-3′-N-(2-hydroxyethyl)-6-O-methylerythromycin A]

SMILES | MIC [1] [µg/mL] | IC50 (pro MMP-9 protein) [µM]
CC[C@H]1OC(=O)[C@H](C)[C@@H](O[C@H]2C[C@@](C)(OC)[C@@H](OC(C)=O)[C@H](C)O2)[C@H](C)[C@@H](O[C@@H]2O[C@H](C)C[C@H](N(C)CCCOC(C)=O)[C@H]2OC)[C@@](C)(OC)C[C@@H](C)C(=O)[C@H](C)[C@@H](O)[C@]1(C)O [Example 136, 4″-O-acetyl-3′-N-demethyl-3′-N-(3-acetoxypropyl)-6,2′-di-O-methylerythromycin A] | > 128 | 2.12
